# Tested on: Escherichia coli
# Assay: Antibacterial activity against Escherichia coli clinical isolate ECJH2 assessed as diameter of zone of inhibition by disk diffusion assay
# Type: functional
structure (smiles),measurement,value
O=[N+]([O-])c1ccccc1/C=N/CCNc1ccnc2cc(Cl)ccc12,diameter of the inhibition zone (DIZ),11 mm
